“And” between values parts separate entries of the source, which are not always exact repeats. Equal values may be shown once.
Legend:
[1] = test system: patients with sensorineural tinnitus; assay: randomized double-blind placebo-controlled clinical trial of acamprosate in tinnitus; assay type: in vivo, human; parameters: key to tinnitus scale, Mean / tinnitus scale, Median / tinnitus scale, Minimum / tinnitus scale, Maximum: tinnitus disturbance score, 0 to 10 (0.5 steps allowed)
Description: We selected 50 patients with tinnitus seen at OTOSUL, Otorrinolaringologia Sul-fluminense, Hospital São Camilo, Volta Redonda, R J, between October 2003 and October 2004. The inclusion criteria were tinnitus of sensorineural etiology, excluding the cases of external and middle ear disease and concomitant temporomandibular joint disorders. Pure tone audiometry, vocal audiometry and immittanciometry were performed in all patients, and we excluded those with conductive and mixed hearing loss and those with tympanogram curve types A-r, A-d, C and B. The audiometer used was AMPLAID A 177 PLUS, and the Immittanciometer was AMPLAID 750. We considered the thresholds up to 25 dB (normal hearing), 26 to 40 dB (mild loss), 41 to 70 dB (moderate loss), 71 to 90 dB (severe loss) and over 90 dB (profound loss).
The patients were classified according to the following parameters:
age, gender, continuous or intermittent tinnitus, uni or bilateral tinnitus, tinnitus characteristics (type of associated noise), time of tinnitus, associated symptoms (hypo and hyper loss, dizziness, ear fullness), probable tinnitus etiology, previous use of drugs to treat tinnitus, and baseline tinnitus score, given by the patient, ranging from 0 to 10, according to how much it disturbed the patient
Patients were asked to score tinnitus from 1 to 10 according to how much they were disturbed by it. We allowed 0.5 scores as well.
Patients were randomly divided into 2 groups of 25 patients: one group received acamprosate 333 mg, TID, and the other received placebo, TID, both groups for 90 days. All details of the study were clarified to the patients by the assistant physician and they all signed the informed consent term. It was a double-blind study approved by the Medical Ethical Committee, Hospital São Camilo.
Patients were analyzed at days 30, 60 and 90 after use of the drug and at each visit, the patient scored the tinnitus status, as well as reported side effects.
The statistical analysis was performed based on the following methods:
t Student test for independent samples or the Mann-Whitney test to compare quantitative data between the two groups (acamprosate and placebo) chi-square test or Fisher exact test to compare qualitative data, Friedman Variance Analysis to analyze the progression of tinnitus scale (quantitative data) throughout time (four assessments within 3 months) with the treatment with acamprosate and placebo.
The test of multiple comparisons based on the statistics of Friedman was applied to identify which moments were different. The test of multiple comparisons is a test complementary to Variance Analysis.
The criterion for determination of significance was adopted as 5%, that is, when p value of the statistical test was smaller or equal to 0.05, meaning there was statistical significance. The statistical analysis was processed by the statistical software SAS System.

[2] = test system: GABA reuptake sites; conditions: rats; cited from earlier work
[3] = test system: patients with tinnitus; conditions: cited from earlier work; for improvement of tinnitus: literature studies, only baclofen and caroverine double blind placebo-controlled
[4] = acamprosate 333 mg TID, 90 days, n=23

Compound: CC(=O)NCCCS(=O)(=O)O [acamprosate, calcium acetyl-homotaurinate]
- tinnitus scale, Maximum ([1]; Baseline, n=23): 10
- tinnitus scale, Mean ([1]; Baseline, n=23): 6.74
- tinnitus scale, Median ([1]; Baseline, n=23): 7
- tinnitus scale, Minimum ([1]; Baseline, n=23): 3
- tinnitus scale, Maximum ([1]; Score 30 d, 333 mg TID, n=23): 10
- tinnitus scale, Mean ([1]; Score 30 d, 333 mg TID, n=23): 5.39
- tinnitus scale, Median ([1]; Score 30 d, 333 mg TID, n=23): 5
- tinnitus scale, Minimum ([1]; Score 30 d, 333 mg TID, n=23): 2
- tinnitus scale, Maximum ([1]; Score 60 d, 333 mg TID, n=23): 9
- tinnitus scale, Mean ([1]; Score 60 d, 333 mg TID, n=23): 3.98
- tinnitus scale, Median ([1]; Score 60 d, 333 mg TID, n=23): 4
- tinnitus scale, Minimum ([1]; Score 60 d, 333 mg TID, n=23): 0
- tinnitus scale, Maximum ([1]; Score 90 d, 333 mg TID, n=23): 10
- tinnitus scale, Mean ([1]; Score 90 d, 333 mg TID, n=23): 2.87
- tinnitus scale, Median ([1]; Score 90 d, 333 mg TID, n=23): 2
- tinnitus scale, Minimum ([1]; Score 90 d, 333 mg TID, n=23): 0
- worsening in score ([1]; acamprosate 333 mg TID, 90 days): no worsening in score has been observed
- severity of observed side effects ([1]; acamprosate 333 mg TID, 90 days, epigastralgia, choking): mild
- patients who did not report improvement [1, 4]: 13.04%
- patients who reported improvement below 50% [1, 4]: 39.13%
- subjects who reported that tinnitus had disappeared [1, 4]: 13.04%
- incidence of side effects ([1]; acamprosate 333 mg TID, 90 days, placebo 20%, p=0.35): 12%
- proportion of improvement at 90 days equal or greater than 50% ([1]; acamprosate 333 mg TID, 90 days, subjective tinnitus score, placebo 11.1%, p=0.012): 47.8% and 47.83%
- patients who interrupted treatment before the end of assessment ([1]; acamprosate group of 25, placebo 7): 2
- patients who suspended treatment owing to side effects ([1]; acamprosate group, 50% of those who interrupted): One
- variation of tinnitus scale as a result of time (Friedman Variance Analysis) ([1]; baseline, 30, 60, 90 days, 333 mg TID, p<0.0001): significant decrease
- effect on GABA reuptake sites and GABA transmission [2]: increases the number of reuptake sites of GABA

Compound: NCC(CC(=O)O)c1ccc(Cl)cc1 (stereo not drawn) [baclofen]
- improvement of tinnitus [3]: about 9.7%

Compound: NC(=O)N1c2ccccc2C=Cc2ccccc21 [carbamazepine]
- improvement, % of the cases of tinnitus ([3]; progressively increasing doses of 50 to 600 mg a day, defined by positive lidocaine test): 50%

Compound: CCN(CC)CCn1c(=O)c(Cc2ccc(OC)cc2)nc2ccccc21 [caroverine]
- improvement of tinnitus [3]: 63.3%

Compound: O=C1CN=C(c2ccccc2Cl)c2cc([N+](=O)[O-])ccc2N1 [clonazepam]
- improvement of tinnitus [3]: 32%

Compound: c1cnc(N2CCN(Cc3ccc4c(c3)OCO4)CC2)nc1 [piribedil]
- improvement of tinnitus [3]: 92.6%

Compound: COc1ccc(CN2CCNCC2)c(OC)c1OC [trimetazidine]
- improvement of tinnitus [3]: 89%

From US20100179220A1, “METHOD FOR THE TREATMENT OF TINNITUS” (Merck Patent GmbH, priority 2006, published 2010)
